Literature values as cited in patent US20070184105A1, “COMSPOSITION FOR STABLIZING EPIGALLOCATECHIN GALLATE (EGCG) IN WATER PHASE AND PREPARATION METHOD THEREOF” (DPI SOLUTIONS, INC., priority 2004, published 2007).

amount of EGCG that can be dissolved in water phase: about 4%
SMILES: O=C(O[C@@H]1Cc2c(O)cc(O)cc2O[C@@H]1c1cc(O)c(O)c(O)c1)c1cc(O)c(O)c(O)c1 [EGCG, epigallocatechin gallate]
